The series relates to captive live fish. Description: Holding captive live fish in water treated with isoeugenol. The series is classed as in vivo. The source says:
The first key ingredient of the chemical mixture for treating the water in fish tanks of the present invention is isoeugenol (2-Methoxy-4-propenylphenol; 4-hydroxy-3-methoxy-1-propenylbenzene; 4-propenylguaiacol) C10H1202. Isoeugenol is an essential oil derived from oil of clove that has anesthetizing capabilities for fish in water. In the preferred embodiment, the formula for maintaining the life of fish contains about 43 ppm±10% of isoeugenol to slow the metabolism of captive live fish.
The benefits of treating the water in which fish are held or transported with isoeugenol are threefold. First, the metabolism of the fish is slowed and therefore the fish require less oxygen. The result is that more live fish may be held in smaller volumes of water. Also, live fish with a slower metabolism are easier to handle and fewer injuries are sustained by the fish.

[1] abbreviates: overdoses up to 10 times the preferred amount of isoeugenol.

`CC=Cc1ccc(O)c(OC)c1` [isoeugenol, 2-Methoxy-4-propenylphenol]: for the setting “dosage rate of about 43 ppm±10% isoeugenol in the water”, the “effect on fish activity (sedation)” value is reported as “slow down fish activity sufficiently to allow handling of the live fish”. The “coagulation of hook wounds” value (fish held in water treated with isoeugenol, metabolism calmed) is “hook wounds appear to coagulate faster”. Besides, under setting [1], the “fish behaviour at overdose (equilibrium)” value is “some fish may still roll over and lose equilibrium”; the “harm to fish at overdose” value is listed as “not harmful to the fish”.
